Results published in ChEMBL document CHEMBL1201862, “PubChem BioAssay data set” (2004).
The source made the active and inactive calls.

Experiments:
Cytochrome P450 1A2 = molecular target: T1, Cytochrome P450 1A2 (Homo sapiens, UniProt P05177);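 further: PubChem cytochrome P450 panel assay, CYP1A2 panel member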
T1 sequence (P05177 whole entry): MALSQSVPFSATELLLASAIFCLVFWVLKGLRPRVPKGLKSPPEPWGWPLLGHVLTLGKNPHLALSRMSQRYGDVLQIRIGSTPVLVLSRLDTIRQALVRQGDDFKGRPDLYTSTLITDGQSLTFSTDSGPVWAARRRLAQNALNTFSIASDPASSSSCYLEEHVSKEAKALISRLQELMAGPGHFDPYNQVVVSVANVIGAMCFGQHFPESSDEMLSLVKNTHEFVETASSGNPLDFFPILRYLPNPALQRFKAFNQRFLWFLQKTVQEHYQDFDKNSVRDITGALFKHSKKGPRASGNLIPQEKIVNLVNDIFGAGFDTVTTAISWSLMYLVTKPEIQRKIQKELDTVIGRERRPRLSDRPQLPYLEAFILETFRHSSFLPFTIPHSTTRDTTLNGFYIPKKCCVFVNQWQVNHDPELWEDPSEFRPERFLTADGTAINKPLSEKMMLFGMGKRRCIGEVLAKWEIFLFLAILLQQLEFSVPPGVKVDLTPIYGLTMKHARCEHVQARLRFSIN

Cytochrome P450 2C9 = Cytochrome P450 2C9 (Homo sapiens, UniProt P11712)
Cytochrome P450 2C9, sequence (P11712 whole entry): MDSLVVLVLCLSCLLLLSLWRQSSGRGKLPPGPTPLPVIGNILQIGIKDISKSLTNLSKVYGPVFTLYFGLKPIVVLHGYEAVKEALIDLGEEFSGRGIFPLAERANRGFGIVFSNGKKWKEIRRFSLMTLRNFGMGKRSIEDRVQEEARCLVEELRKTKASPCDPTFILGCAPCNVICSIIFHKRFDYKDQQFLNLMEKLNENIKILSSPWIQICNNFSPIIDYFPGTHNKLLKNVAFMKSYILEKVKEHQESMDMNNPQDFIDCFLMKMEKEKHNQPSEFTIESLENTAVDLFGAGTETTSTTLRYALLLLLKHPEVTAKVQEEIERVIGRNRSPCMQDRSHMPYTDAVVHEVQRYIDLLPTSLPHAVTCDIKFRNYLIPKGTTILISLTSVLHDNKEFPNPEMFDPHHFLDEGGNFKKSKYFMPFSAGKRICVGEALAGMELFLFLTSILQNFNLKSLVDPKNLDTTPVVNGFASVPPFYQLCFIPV

Cytochrome P450 2D6 [1] = molecular target: T2, Cytochrome P450 2D6 (Homo sapiens, UniProt P10635);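 further: CYP2D6 member of a cytochrome P450 panel assay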
T2 sequence (P10635 whole entry): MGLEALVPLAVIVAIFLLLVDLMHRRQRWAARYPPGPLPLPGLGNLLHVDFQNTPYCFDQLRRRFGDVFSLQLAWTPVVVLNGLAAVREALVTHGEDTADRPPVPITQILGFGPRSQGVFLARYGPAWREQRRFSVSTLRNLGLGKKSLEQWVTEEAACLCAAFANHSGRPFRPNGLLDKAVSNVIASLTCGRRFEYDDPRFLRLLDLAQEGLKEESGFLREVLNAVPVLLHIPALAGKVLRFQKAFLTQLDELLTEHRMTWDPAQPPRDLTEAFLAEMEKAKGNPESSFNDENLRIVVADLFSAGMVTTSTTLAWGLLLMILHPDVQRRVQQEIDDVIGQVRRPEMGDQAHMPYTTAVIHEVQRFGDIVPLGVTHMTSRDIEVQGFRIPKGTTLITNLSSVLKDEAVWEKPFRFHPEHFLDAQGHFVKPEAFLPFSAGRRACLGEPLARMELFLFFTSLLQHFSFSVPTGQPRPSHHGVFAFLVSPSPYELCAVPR

Vero [2] = assay: cells; format: functional, cell-based; conditions: Chlorocebus sabaeus
Vero [3] = assay: cells; format: functional; conditions: Chlorocebus sabaeus
Cytochrome P450 3A4 = Cytochrome P450 3A4 (Homo sapiens, UniProt P08684);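 further: CYP3A4 tested as one member of a cytochrome P450 panel screen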
Cytochrome P450 3A4, sequence (P08684 whole entry): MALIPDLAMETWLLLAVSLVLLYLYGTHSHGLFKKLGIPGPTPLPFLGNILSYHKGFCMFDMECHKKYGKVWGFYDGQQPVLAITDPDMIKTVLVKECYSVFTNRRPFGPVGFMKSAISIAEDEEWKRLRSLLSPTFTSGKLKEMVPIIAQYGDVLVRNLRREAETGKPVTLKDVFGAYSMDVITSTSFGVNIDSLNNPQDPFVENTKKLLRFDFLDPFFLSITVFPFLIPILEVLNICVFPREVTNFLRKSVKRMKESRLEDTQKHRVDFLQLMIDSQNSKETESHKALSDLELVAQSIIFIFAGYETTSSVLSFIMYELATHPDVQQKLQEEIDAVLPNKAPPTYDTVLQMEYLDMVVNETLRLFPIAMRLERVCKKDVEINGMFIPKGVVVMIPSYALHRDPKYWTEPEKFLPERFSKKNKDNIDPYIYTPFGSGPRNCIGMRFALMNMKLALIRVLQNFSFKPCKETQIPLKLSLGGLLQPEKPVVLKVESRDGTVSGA

Cytochrome P450 2D6 [4] = molecular target: T2, Cytochrome P450 2D6; remark: listed apart in the source
[5] = inhibitors of SNCA 5'UTR-driven reporter translation, confirmation, H4 neuroglioma cells, luminescence (AID 1988); format: functional, cell-based
[6] = inhibitors of firefly luciferase expression or activity, dose response, H4 neuroglioma cells, luminescence (AID 1990); format: functional, cell-based
[7] = Luminescence Cell-Based Dose Response HTS to Identify Inhibitors of 5'UTR Stem-Loop Driven Prion Protein mRNA Translation in H4 Neuroglioblastoma Cells. [Related pubchem assays: 1827 (Project Summary), 1813 (Primary HTS)]; format: functional
A-375 [8] = assay: A375 melanoma cell viability reduction, dose response, counter-screen for MITF modulator project, cherry-pick samples, set 2 (AID 540335); format: functional, cell-based; conditions: Homo sapiens
A-375 [9] = assay: MITF: Counter assay: A375 proliferation Measured in Cell-Based System Using Plate Reader - 2084-03_Inhibitor_Dose_DryPowder_Activity. [Related pubchem assays (depositor defined):AID488944]; format: functional; conditions: Homo sapiens
Cytochrome P450 2C19 = Cytochrome P450 2C19 (Homo sapiens, UniProt P33261); assay: Cytochrome panel assay with activity outcomes. Panel member name: p450-cyp2c19 Compounds with AC50 equal or less than 10 uM are considered active; format: functional; conditions: read-out: AC50
Cytochrome P450 2C19, sequence (P33261 whole entry): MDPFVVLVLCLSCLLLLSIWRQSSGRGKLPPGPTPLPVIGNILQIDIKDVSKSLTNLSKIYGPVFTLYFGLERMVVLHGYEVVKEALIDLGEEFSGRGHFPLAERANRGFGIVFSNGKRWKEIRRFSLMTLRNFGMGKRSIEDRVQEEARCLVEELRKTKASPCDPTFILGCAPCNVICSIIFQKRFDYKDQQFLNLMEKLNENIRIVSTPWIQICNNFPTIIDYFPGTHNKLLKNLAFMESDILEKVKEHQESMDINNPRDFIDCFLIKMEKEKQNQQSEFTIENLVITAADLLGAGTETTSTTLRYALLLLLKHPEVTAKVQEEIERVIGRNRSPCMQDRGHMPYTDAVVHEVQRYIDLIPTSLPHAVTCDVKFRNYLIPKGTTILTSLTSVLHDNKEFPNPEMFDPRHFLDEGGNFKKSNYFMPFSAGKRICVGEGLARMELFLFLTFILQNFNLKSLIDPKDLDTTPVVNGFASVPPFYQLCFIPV

[10] = molecular target: G-protein coupled receptor 55 (Homo sapiens, UniProt Q9Y2T6); assay: SAR Analysis of Selective Antagonists of GPR55 using an Image-Based Assay - Set 4. [Related pubchem assays (depositor defined):AID2013, AID2026]; format: functional;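 further: antagonism of response to 5 µM lysophosphatidylinositol agonist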
G-protein coupled receptor 55, sequence (Q9Y2T6 whole entry): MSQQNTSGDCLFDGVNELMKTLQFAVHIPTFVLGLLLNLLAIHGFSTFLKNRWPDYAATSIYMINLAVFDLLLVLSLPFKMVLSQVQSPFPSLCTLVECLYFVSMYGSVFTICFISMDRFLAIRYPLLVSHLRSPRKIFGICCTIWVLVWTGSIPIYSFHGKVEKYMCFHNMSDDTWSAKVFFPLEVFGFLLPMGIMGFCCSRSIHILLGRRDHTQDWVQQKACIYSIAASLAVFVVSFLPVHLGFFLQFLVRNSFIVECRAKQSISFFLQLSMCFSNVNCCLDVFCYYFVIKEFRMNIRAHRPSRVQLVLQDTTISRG

[11] = molecular target: T3, G-protein coupled receptor 35 (Homo sapiens, UniProt Q9HC97); assay: SAR analysis of Antagonists of the GPR35 Receptor using an Image-Based Assay - Set 6. [Related pubchem assays (depositor defined):AID2013, AID2026]; format: functional
T3 sequence (Q9HC97 whole entry): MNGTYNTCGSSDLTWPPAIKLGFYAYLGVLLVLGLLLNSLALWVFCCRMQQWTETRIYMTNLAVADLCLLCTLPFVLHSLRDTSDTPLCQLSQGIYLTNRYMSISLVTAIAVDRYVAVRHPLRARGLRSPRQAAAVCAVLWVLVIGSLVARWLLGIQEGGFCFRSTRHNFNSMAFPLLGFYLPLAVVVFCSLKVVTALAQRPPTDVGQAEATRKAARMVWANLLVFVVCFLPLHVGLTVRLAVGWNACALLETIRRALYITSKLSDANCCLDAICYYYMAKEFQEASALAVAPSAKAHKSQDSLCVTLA

Cannabinoid receptor 2 [12] = molecular target: T4, Cannabinoid receptor 2 (Homo sapiens, UniProt P34972); assay: SAR analysis of antagonists of the Cannabinoid Receptor 2 using an Image-Based Assay - Set 3. [Related pubchem assays (depositor defined):AID2013, AID2026]; format: functional
T4 sequence (P34972 whole entry): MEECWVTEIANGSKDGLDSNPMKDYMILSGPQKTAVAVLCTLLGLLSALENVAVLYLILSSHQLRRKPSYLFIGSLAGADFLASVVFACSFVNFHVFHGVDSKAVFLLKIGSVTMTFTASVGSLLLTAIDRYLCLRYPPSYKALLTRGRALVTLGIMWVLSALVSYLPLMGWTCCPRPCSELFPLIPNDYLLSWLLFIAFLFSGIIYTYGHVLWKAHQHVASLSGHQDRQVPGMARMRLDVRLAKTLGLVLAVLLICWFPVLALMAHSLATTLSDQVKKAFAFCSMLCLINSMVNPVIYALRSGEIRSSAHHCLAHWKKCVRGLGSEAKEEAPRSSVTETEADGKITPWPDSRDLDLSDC

[13] = molecular target: T3, G-protein coupled receptor 35; assay: SAR analysis of Agonists of the GPR35 Receptor using an Image-Based Assay - Set 4. [Related pubchem assays (depositor defined):AID2013, AID2026]; format: functional
Cannabinoid receptor 1 [14] = molecular target: T5, Cannabinoid receptor 1 (Homo sapiens, UniProt P21554); assay: SAR analysis of agonists of the Cannabinoid Receptor 1 using an Image-Based Assay - Set 4. [Related pubchem assays (depositor defined):AID2013, AID2026]; format: functional
T5 sequence (P21554 whole entry): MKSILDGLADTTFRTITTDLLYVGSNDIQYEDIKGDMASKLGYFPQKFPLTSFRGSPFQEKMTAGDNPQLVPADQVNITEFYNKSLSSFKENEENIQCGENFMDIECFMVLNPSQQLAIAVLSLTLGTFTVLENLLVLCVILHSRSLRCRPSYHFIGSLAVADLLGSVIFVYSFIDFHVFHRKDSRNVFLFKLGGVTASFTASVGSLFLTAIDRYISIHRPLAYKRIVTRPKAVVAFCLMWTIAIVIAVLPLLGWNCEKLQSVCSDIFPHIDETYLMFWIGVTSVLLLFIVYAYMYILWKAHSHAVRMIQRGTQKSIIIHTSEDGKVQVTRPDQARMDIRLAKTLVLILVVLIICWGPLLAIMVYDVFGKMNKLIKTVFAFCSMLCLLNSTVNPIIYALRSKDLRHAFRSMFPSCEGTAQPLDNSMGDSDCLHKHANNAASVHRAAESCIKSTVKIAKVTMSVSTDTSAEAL

Cannabinoid receptor 1 [15] = molecular target: T5, Cannabinoid receptor 1; assay: SAR analysis of antagonists of the Cannabinoid Receptor 1 using an Image-Based Assay - Set 4. [Related pubchem assays (depositor defined):AID2013, AID2026]; format: functional
Cannabinoid receptor 2 [16] = molecular target: T4, Cannabinoid receptor 2; assay: SAR analysis of agonists of the Cannabinoid Receptor 2 using an Image-Based Assay - Set 3. [Related pubchem assays (depositor defined):AID2013, AID2026]; format: functional
Keap1/Nrf2 = Keap1/Nrf2 (Homo sapiens, UniProt Q14145); assay: Keap1-Nrf2 protein-protein interaction inhibitors, dose response, biochemical, fluorescence polarization, cherry-picked samples (AID 588683)
Keap1/Nrf2, sequence (Q16236 whole entry): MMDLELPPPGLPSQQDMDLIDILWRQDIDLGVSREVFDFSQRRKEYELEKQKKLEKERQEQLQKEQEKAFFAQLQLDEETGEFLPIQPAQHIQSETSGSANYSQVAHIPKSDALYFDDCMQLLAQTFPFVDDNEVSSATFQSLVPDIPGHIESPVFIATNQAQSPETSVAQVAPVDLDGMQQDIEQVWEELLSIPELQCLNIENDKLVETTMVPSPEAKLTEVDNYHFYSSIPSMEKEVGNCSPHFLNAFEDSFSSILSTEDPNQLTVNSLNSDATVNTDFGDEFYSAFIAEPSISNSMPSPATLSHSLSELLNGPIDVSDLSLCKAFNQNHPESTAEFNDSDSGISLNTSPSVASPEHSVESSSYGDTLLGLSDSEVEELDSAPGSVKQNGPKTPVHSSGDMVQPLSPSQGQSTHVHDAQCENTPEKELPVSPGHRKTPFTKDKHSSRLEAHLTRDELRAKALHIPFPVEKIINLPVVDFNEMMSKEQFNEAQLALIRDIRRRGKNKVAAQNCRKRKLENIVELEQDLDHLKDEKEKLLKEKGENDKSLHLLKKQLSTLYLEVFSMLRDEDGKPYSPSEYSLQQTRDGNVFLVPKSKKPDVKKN
Keap1/Nrf2, sequence (Q14145 whole entry): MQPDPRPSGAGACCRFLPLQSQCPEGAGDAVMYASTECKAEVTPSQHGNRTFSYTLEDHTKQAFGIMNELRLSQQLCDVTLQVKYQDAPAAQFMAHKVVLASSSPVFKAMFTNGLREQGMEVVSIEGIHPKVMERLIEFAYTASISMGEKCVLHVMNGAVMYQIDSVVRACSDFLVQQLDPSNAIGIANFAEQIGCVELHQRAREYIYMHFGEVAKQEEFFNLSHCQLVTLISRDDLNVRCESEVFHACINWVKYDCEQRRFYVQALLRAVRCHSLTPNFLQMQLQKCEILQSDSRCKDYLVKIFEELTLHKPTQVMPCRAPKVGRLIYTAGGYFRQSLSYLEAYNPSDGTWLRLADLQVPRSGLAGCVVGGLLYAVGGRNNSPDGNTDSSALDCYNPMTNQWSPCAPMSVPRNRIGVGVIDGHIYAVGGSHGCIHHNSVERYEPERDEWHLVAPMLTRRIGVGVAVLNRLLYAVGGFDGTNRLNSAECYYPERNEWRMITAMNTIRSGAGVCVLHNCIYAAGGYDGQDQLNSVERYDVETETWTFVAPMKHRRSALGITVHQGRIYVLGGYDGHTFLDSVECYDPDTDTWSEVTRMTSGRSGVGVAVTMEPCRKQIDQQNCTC

[17] = molecular target: T6, Zinc finger protein mex-5 (Caenorhabditis elegans, UniProt Q9XUB2); assay: MEX-5/TCR-2 RNA interaction inhibitors, dose response, biochemical, C. elegans, fluorescence polarization (AID 1960)
T6 sequence (Q9XUB2 whole entry): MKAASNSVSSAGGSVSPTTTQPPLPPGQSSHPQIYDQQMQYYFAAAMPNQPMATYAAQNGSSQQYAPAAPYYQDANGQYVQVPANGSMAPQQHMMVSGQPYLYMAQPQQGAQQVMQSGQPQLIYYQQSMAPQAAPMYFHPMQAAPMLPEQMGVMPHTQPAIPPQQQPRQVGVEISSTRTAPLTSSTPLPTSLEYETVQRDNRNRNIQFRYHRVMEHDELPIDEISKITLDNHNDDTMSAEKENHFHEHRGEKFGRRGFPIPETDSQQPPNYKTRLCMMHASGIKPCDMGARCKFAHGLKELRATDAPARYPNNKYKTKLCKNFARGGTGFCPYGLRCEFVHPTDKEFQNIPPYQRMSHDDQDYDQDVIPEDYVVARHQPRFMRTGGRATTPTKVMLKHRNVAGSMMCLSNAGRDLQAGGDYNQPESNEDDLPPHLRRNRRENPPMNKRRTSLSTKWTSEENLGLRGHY

[18] = molecular target: T7, RNA-binding protein pos-1 (Caenorhabditis elegans, UniProt G5EF15); assay: inhibitors of POS-1/mex-3 RNA binding, dose response, biochemical, fluorescence polarization (AID 1964);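 further: purified POS-1 fused to maltose binding protein made in E. coli; potency of compounds blocking POS-1 binding to fluorescent RNA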
T7 sequence (G5EF15 whole entry): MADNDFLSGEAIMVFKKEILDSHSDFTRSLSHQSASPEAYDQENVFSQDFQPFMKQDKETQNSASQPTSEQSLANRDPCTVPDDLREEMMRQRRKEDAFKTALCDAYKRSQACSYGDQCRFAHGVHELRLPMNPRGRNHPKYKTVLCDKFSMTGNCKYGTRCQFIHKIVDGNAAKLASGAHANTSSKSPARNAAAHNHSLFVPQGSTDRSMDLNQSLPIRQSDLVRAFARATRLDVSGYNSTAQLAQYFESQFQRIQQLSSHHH

[19] = HCT116 cell viability decrease, GSK3B pretreatment – CellTiter-Glo, IC50, dose response (AID 1117339); format: functional; conditions: HCT-116
[20] = Concentration-dependent survival of SW480 colon cancer line, luminescence detection with CellTiter-Glo, half-maximal inhibitory concentration (AID 1117338); format: functional
[21] = RKO cell viability reduction, dose response, CellTiter-Glo luminescence (AID 1117322); format: functional
[22] = SNU-C1 cell viability reduction, dose response, CellTiter-Glo luminescence (AID 1117323); format: functional, cell-based
[23] = HeLa 2N DNA content increase, dose response, cell-based, IC50 (AID 1117349); format: functional
[24] = HeLa 4N DNA content increase, dose response, cell-based, IC50 (AID 1117351); format: functional
[25] = CellTiter-Glo luminescent dose response of DLD-1 viability loss (AID 1117352); format: functional
[26] = cytotoxicity toward HCT116 cells – cell-based, CellTiter-Glo luminescence, IC50, dose response (AID 1117332); format: functional; conditions: HCT-116
[27] = cytotoxicity toward HT-29 cells – cell-based, CellTiter-Glo luminescence, IC50, dose response (AID 1117330); format: functional
H4 = assay: Luminescence Cell-Based Dose Response HTS to Identify Activators of 5'UTR Stem-Loop Driven Prion Protein mRNA Translation in H4 Neuroglioblastoma Cells. [Related pubchem assays: 1829 (Project Summary), 1814 (Primary HTS)]; format: functional; conditions: Homo sapiens
HeLa = assay: HeLa cell cytotoxicity, dose response, cytotoxicity control for MITF activator project, CellTiter-Glo luminescence, cherry-pick samples (AID 540259); format: functional, cell-based; conditions: Homo sapiens
[28] = Luminescence Cell-Based Dose Response HTS to Identify Activators of Luciferase Translation or Activity in H4 […] Cells. [Related pubchem assays: 1829 (Project Summary), 1814 (Primary HTS)]; format: functional
[29] = Luminescence Cell-Based Dose Response to Identify Activators of Luciferase Translation or Activity in H4-C Neuroglioblastoma Cells. [Related pubchem assays: 1829 (Project Summary), 1814 (Primary HTS)]; format: functional
[30] = Luminescence Cell-Based Dose Response to Identify Activators of 5'UTR Stem-Loop Driven Prion Protein mRNA Translation in H4-C Neuroglioblastoma Cells. [Related pubchem assays: 1829 (Project Summary), 1814 (Primary HTS)]; format: functional
[31] = Luminescence Cell-Based Dose Confirmation to Identify Activators of 5'UTR Stem-Loop Driven Alpha-Synuclein mRNA Translation in H4 Neuroglioblastoma Cells. [Related pubchem assays: 1829 (Project Summary), 1814 (Primary HTS)]; format: functional
[32] = HEp-2 cell cytotoxicity, dose response, cytotoxicity control for RSV inhibitor project, HTS (AID 2410); format: functional; conditions: human respiratory syncytial virus

Structure (SMILES): CC(C)OC(=O)/C(=C\C=C\c1ccccc1)NC(=O)c1ccccc1
- AC50 (Cytochrome P450 1A2): 3.55 µM (inconclusive)
- AC50 (Cytochrome P450 2C9): 2.82 µM (inconclusive)
- AC50 (Cytochrome P450 2D6 [1]): inconclusive

Structure (SMILES): C#CCn1c(S(=O)(=O)Cc2ccc(C)cc2)nc(-c2ccccc2)c1-c1ccccc1
- IC50 (Vero [2]): 3.84 µM (active)
- CC50 (Vero [3]): 22.6 µM (active)

Structure (SMILES): CCOC(=O)C1C(=O)C=C(/C=C/c2ccccc2)CC1c1ccc(Cl)cc1 (stereo not drawn)
- AC50 (Cytochrome P450 3A4): inconclusive
- AC50 (Cytochrome P450 2C9): 1.41 µM (inconclusive)
- AC50 (Cytochrome P450 2D6 [4]): 7.08 µM (inconclusive)

Structure (SMILES): Cc1cc(C)c(-c2csc(NC(=O)/C=C/c3cccs3)n2)c(C)c1
- EC50 [5]: 9.05 µM (active)
- IC50 (Vero [2]): 23.2 µM (active)
- CC50 (Vero [3]): > 25 µM (active)
- EC50 [6]: > 120 µM (not active)
- EC50 [7]: 21.5 µM (active)

Structure (SMILES): CCOC(=O)c1ccc(NC(=O)CC2SCCNC2=O)cc1 (stereo not drawn)
- AC50 (A-375 [8]): > 35 µM (active)
- AC50 (A-375 [9]): > 35 µM (active)

Structure (SMILES): S=C(Nc1ccc(Cl)cc1)NC1CC2CCCC(C1)N2C1CCCC1 (stereo not drawn)
- AC50 (Cytochrome P450 3A4): inconclusive
- AC50 (Cytochrome P450 2C19): 22.4 µM (inconclusive)

Structure (SMILES): COc1ccc(-n2cc3c(-c4ccc(-c5ccccc5)cc4)nnc(C)c3n2)cc1
- IC50 [10]: > 32 µM (inactive)
- IC50 [11]: 4.74 µM (active)
- IC50 (Cannabinoid receptor 2 [12]): 2.09 µM (active)
- EC50 [13]: > 32 µM (inactive)
- EC50 (Cannabinoid receptor 1 [14]): > 32 µM (inactive)
- IC50 (Cannabinoid receptor 1 [15]): 1.04 µM (active)
- EC50 (Cannabinoid receptor 2 [16]): > 32 µM (inactive)

Structure (SMILES): CC(C)c1nnc(N2C(=O)C(O)=C(C(=O)c3cccs3)C2c2ccccc2)s1 (stereo not drawn)
- AC50 (Keap1/Nrf2): 13.4 µM (active)
- EC50 [17]: 4.38 µM (inconclusive)
- EC50 [18]: 33.9 µM (inconclusive)

Structure (SMILES): Cc1cccc(OCC(=O)N2CCN(c3nc(C)nc4sc5c(c34)CCCC5)CC2)c1
- IC50 [10]: > 32 µM (inactive)
- IC50 [11]: > 32 µM (inactive)
- IC50 (Cannabinoid receptor 2 [12]): > 11 µM (inactive)
- EC50 [13]: > 32 µM (inactive)
- EC50 (Cannabinoid receptor 1 [14]): > 32 µM (inactive)
- IC50 (Cannabinoid receptor 1 [15]): 1.66 µM (active)
- EC50 (Cannabinoid receptor 2 [16]): > 32 µM (inactive)

Structure (SMILES): COc1cccc2c1C(=O)c1c(O)c3c(c(O)c1C2=O)C[C@@](O)(C(C)=O)C[C@@H]3O[C@H]1C[C@H](N)[C@H](O)[C@H](C)O1 [DAUNORUBICIN]
- AC50 (Cytochrome P450 1A2): 31.6 µM (inconclusive)
- IC50 [19]: 0.0554 µM (active)
- IC50 [20]: 1.47 µM (active)
- IC50 [21]: 0.118 µM (active)
- IC50 [22]: 0.338 µM (active)
- IC50 [23]: 0.0102 µM (active)
- IC50 [24]: 0.0464 µM (active)
- IC50 [25]: 0.188 µM (active)
- IC50 [26]: 0.0509 µM (active)
- AC50 (Cytochrome P450 2D6 [1]): inactive
- IC50 [27]: 0.648 µM (active)

Structure (SMILES): Cc1ccc(NC(=O)Nc2ccc3oc(C)nc3c2)cc1
- EC50 (H4): > 120 µM (not active)
- AC50 (HeLa): 104 µM (active)
- EC50 [28]: < 0.1 µM (active)
- EC50 [29]: 0.346 µM (active)
- EC50 [30]: 0.192 µM (active)
- EC50 [31]: 0.216 µM (active)

Structure (SMILES): C/C(=N\OC(=O)c1cccc(C(F)(F)F)c1)c1sc(-c2ccccc2)nc1C
- AC50 (HeLa): 174 µM (active)
- CC50 [32]: 30.8 µM (active)
